Laboratory results taken from patent US6623933B1 (priority 1999, dated 2003).
Structures can show the parent of a compound that is named as a salt. Where two headings read alike, the source gives them in different places.

Key:
NR1011/NR2A [1] = target: T1, NR1011/NR2A (Rattus norvegicus, UniProt P35439+Q00959); assay: NMDA-induced currents of NR1 splice variants, Xenopus oocytes, Example 4; assay type: cell-based; design: expressed in transfected cells; host or cells: Xenopus oocytes injected with NR1011 and NR2A mRNA; conditions: for maximum relative current (MRC) / percentage potentiation of the maximum NMDA response / NMDA nH / EC50: NR1011/2A; for EC50: read-out: NMDA EC50
Method: Overnight cultures (500 ml) of transformed bacterial cells were prepared in order to grow sufficient quantities for maxiprep isolation of the plasmid CDNA. Maxipreps were done using a Sorvall RC-5B ultracentrifuge, Qiagen columns and cDNA was quantitated with spectrophotometry (OD260 and OD260/ OD280 ratio). The resulting plasmid cDNA was linearized by digestion with an appropriate restriction enzyme that cleaves distal to the cDNA insert (XhoI for NR2A or NotI for NR1100, NR1000, NR1111, NR1011, NR1101, NR1001). […] The samples were stored at −20° C. until use.
In vitro transcription was performed using the Ambion mMessage mMachine kit with T7 (NR1100, NR1000, NR1111, NR1011, NR1101, NR1001) RNA polymerase. The reaction was assembled on ice and allowed to incubate at 37° C. for 1-2 hr. The resulting mRNA was precipitated (reaction termination) using lithium chloride/5 mM EDTA solution and dissolved in RNase-free H2O. The concentration (OD260) and OD260/OD280 ratio (should be more than 1.5) was determined by spectrophotometer. The yield of mRNA was generally 15-30 μg. mRNA was stored at −80° C. until use.
Intracellular recording microelectrodes were fabricated from 100 μl borosilicate glass disposable micropipettes using a 2-step protocol on a standard horizontal Flaming-Brown micropipette puller.

NR1/NR2B (NR1100) = NR1/NR2B (NR1100) (Rattus norvegicus, UniProt P35439+Q00960)
Source text: (§1) Plasmids containing the NR1100 (NR1G) and NR2A cDNA inserts were kindly provided by Dr. Nakanishi (Kyoto University Faculty of Medicine, Kyoto, Japan). Plasmids containing the NR2B, NR2C and NR2D cDNA inserts were kindly provided by Dr. P. Seeburg (Heidelberg University, Heidelberg, Germany). Plasmids were linearized with appropriate restriction enzyme prior to in vitro transcription using the Message Machine kit (Ambion, Inc., Austin, Tex.).
(§2) Female, oocyte-positive Xenopus laevis frogs were purchased from Xenopus I (Dexter, Mich.). […] Oocytes were injected with 50 nL of RNA solutions using an electronic microinjector (Drummond Inc., Broomall, Pa.). […] The injected oocytes were used for experiments following 1-5 days of incubation in Barth's solution at 18-20° C.
(§3) The microelectrodes were fabricated from borosilicate glass capillaries with a programmed puller (Sutter Instrument Co., Calif.). Microelectrode resistance was 1-3 MΩ_when filled with 3 M KCl.
(§4) Except where otherwise stated, oocytes were clamped at a holding potential of −70 mV during data acquisition. The membrane current was filtered at 500 Hz and sampled at 100 Hz. Drugs were applied using a gravity-driven external perfusion system. The working volume of the recording chamber was 30 μl and the rate of the perfusion was 50 μl/sec. The drug application lasted 10 sec and was followed by 60 s wash. Data acquisition and external perfusion were controlled using custom-written software implemented in the SuperScope II development environment (GW Instruments, Mass.). All experiments were performed at room temperature of 22-24° C. Peak or steady-state current measurements were normalized and expressed as a fraction of the peak or steady-state control current measurements, which were performed before and after application of every single concentration of agonists or steroids.
(§5) Concentration-response data were analyzed by nonlinear regress ion using the logistic equation Response=Emax/(1+(EC50/c)^nH), where c is concentration, Emaxis the maximum response, nHis the Hill coefficient. The data are presented as mean±SEM. EC50values are averaged as logarithms (De Lean et al., Am. J. Physiol. 235: E97-E102 (1978))±the SEM of the log EC50. […] The pooled data were simultaneously fitted to the logistic equation, either with Emax and EC50 constrained to be identical in the presence and absence of PS, or allowing one or both to vary independently. […] This was regarded as indicating a significant treatment effect of PS, but the change in EC50and Emaxwas not considered significant. […] No attempt was made to test the generally small changes in nHfor statistical significance.

NR1010/NR2A = NR1010/NR2A (Rattus norvegicus, UniProt P35439+Q00959); design: agonist nHill / agonist Emax: dose or concentration left out as unconfirmed
NR1/NR2C (NR1100) = NR1/NR2C (NR1100) (Rattus norvegicus, UniProt P35439+Q00961)
Source text: as §1, §2, §3, §4, §5

NR1011/NR2A [2] = target: T1, NR1011/NR2A; design: agonist Emax: dose or concentration left out as unconfirmed
NR1101/NR2A = NR1101/NR2A (Rattus norvegicus, UniProt P35439+Q00959); design: agonist Emax: dose or concentration left out as unconfirmed
NR1111/NR2A = NR1111/NR2A (Rattus norvegicus, UniProt P35439+Q00959); design: agonist Emax: dose or concentration left out as unconfirmed
NR1/NR2A (NR1100) = NR1/NR2A (NR1100) (Rattus norvegicus, UniProt P35439+Q00959)
Source text: as §1, §2, §3, §4, §5

[3] = target: T2, NR1100+NR2A NMDA receptor (Rattus norvegicus, UniProt P35439+Q00959); assay: NMDA-induced currents, Xenopus oocytes, Example 1; assay type: cell-based; conditions: for Percentage change in NMDA response: NR1100 + NR2A, steroid 100 μM, −100 mV
T2 construct: expressed in transfected cells; host or cells: Xenopus oocytes co-injected with NR1100 and NR2A cRNA
Source text: Plasmids were obtained from the following individuals: Dr. Suzanne Zukin (Albert Einstein College of Medicine, Bronx, N.Y.), NR1100; Dr. Shigetada Nakanishi (Kyoto University Faculty of Medicine, Kyoto, Japan), NR2A; Dr. Stephen Heinemann (Salk Institute, San Diego, Calif.), GluR1 (flop), GluR3 (flop), and GluR6. Plasmids were linearized with BamH1 (NR1100), XhoI (NR2A, GluR1, GluR3) or XbaI (GluR6) prior to in vitro transcription with T3 (GluR1, GluR3, GluR6) or T7 (NR1100, NR2A) RNA polymerase using the Message Machine kit (Ambion, Austin, Tex.). […] RNA solutions (50-70 nl) were injected into oocytes for delivery of NR1100 (5 ng), NR1100:NR2A (1:10 ng), GluR1 (5 ng). GluR3 (5 ng), or GluR6 (20 ng). Oocytes were incubated in ND96 at 18-20° C. for 3-7 days prior to electrophysiological recording.
Steroid solutions were prepared as 70-100 mM frozen stocks in dimethyl sulfoxide (DMSO). The final DMSO concentration of all recording solutions was between 0.1% to 0.5% and was constant within an experiment.
Perfusion control and data acquisition were carried out using an automated oocyte electrophysiology workstation that was developed for the rapid collection of concentration-response data and real-time waveform analysis (Yaghoubi et al., Soc. Neurosci. Abstr. 20: 1109 (1995)). This system is implemented on a Macintosh IIci computer (Apple Computer, Cupertino, Calif.) equipped with MacA-DIOS II data acquisition and control hardware (GW Instruments, Somerville, Mass.). Drug application is controlled by the computer through a series of valves, using custom-written software based on the SuperScope II development environment, improving the efficiency and reproducibility of data collection. Experiments were carried out using an Axoclamp-2A voltage clamp amplifier (Axon Instruments, Foster City, Calif.) in two-electrode voltage clamp mode. Intracellular microelectrodes (1-3 MΩ) were filled with 3 M KCl. […] Membrane potential was clamped at −60 to −70 mV and stepped to −100 mV at the start of data acquisition unless otherwise stated. […] Current and voltage recordings were digitized at 100 Hz for analysis. GluR6 injected oocytes were treated for 10 min with 10 μg/ml concanavalin A to prevent fast desensitization.
Results are expressed as mean±S.E.M. Statistical comparisons were made using Student's t-test.

[4] = read-out: agonist EC50, +100 μM PS

Chain of NR1101/NR2A (Q00959 23-1464, other chains not shown): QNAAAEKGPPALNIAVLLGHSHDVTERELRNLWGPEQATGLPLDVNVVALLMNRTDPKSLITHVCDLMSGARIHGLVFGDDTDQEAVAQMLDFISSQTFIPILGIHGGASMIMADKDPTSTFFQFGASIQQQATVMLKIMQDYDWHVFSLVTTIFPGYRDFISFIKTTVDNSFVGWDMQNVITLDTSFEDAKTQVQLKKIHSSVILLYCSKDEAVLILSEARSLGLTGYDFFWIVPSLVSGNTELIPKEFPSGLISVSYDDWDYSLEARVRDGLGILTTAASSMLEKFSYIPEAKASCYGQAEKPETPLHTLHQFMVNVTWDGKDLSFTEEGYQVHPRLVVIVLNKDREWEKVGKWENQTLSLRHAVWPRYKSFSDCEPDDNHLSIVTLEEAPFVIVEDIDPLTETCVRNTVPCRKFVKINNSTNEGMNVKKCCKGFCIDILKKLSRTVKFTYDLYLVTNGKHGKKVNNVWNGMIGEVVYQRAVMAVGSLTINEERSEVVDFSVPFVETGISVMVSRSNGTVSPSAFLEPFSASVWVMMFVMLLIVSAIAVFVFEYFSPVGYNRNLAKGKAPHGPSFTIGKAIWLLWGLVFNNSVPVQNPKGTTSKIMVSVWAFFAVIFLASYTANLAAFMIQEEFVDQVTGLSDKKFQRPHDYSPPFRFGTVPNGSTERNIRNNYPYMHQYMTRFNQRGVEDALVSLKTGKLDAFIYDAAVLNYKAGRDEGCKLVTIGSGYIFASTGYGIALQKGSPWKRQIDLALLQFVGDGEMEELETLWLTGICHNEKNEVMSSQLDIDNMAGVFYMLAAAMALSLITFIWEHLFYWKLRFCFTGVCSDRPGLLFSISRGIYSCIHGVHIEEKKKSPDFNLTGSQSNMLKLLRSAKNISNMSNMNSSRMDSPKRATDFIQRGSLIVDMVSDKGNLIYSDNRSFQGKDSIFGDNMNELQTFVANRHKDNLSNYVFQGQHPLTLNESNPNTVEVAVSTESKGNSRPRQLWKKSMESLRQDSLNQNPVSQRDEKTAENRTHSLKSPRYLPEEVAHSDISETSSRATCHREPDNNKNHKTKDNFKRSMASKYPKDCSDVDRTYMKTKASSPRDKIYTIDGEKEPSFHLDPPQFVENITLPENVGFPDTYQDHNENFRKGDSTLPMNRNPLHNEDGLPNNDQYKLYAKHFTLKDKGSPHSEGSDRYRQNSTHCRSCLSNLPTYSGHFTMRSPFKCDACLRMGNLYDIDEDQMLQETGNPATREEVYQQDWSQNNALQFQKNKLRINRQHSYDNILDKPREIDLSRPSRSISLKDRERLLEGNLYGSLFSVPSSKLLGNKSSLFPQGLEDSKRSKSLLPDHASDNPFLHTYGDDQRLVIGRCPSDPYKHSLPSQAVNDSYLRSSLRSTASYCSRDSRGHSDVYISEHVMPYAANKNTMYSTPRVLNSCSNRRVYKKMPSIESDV
T2 sequence (Q00959 23-1464, other chains not shown): as above
Chain of NR1010/NR2A (Q00959 23-1464, other chains not shown): as above

## pregnenolone sulfate [PS]
NR1011/NR2A [1]; 100 μM PS, 200 μM NMDA+10 μM glycine, pH 7.5
  maximum relative current (MRC): 1.41
NR1011/NR2A [1]; 100 μM PS, pH 6.5
  maximum relative current (MRC): 2.24
NR1011/NR2A [1]; 100 μM PS, pH 7.5
  percentage potentiation of the maximum NMDA response: 50%
NR1011/NR2A [1]; 100 μM PS, pH 8.5
  maximum relative current (MRC): 1.35
  percentage potentiation of the maximum NMDA response: 24%
NR1011/NR2A [1]; NR1011/NR2A, 100 μM PS
  difference in mrc between pH=6.5 and pH=7.5: 1.7 fold
NR1/NR2B (NR1100)
  PS nH: 1.42 ± 0.11
NR1/NR2B (NR1100); 100 μM PS, […] μM NMDA
  enhancement of NMDA-induced current: 78±9%
NR1/NR2B (NR1100); […] μM NMDA, 10 μM glycine
  PS Emax (% Change): +202 ± 10%
NR1010/NR2A; NR1010/NR2A
  PS Emax: 1.03 ± 0.09
  PS nHill: 1.30 ± 0.18
NR1/NR2C (NR1100)
  fold less potent as inhibitor of NR1/NR2C and NR1/NR2D than in potentiating NR1/NR2A and NR1/NR2B: 3.4- to 5.6 fold
NR1/NR2C (NR1100); NR1/NR2C
  PS nH: 1.32 ± 0.29
NR1/NR2C (NR1100); NR1/NR2C, 100 μM PS, […] μM NMDA
  inhibition of NMDA-induced current: 35±3%
NR1/NR2C (NR1100); NR1/NR2C, […] μM NMDA, 10 μM glycine
  PS Emax (% Change): −63 ± 9%
NR1011/NR2A [2]; NR1011/NR2A
  Maximum potentiation of NMDA-induced current by PS: 2.14±0.17 fold
  PS Emax: 1.14 ± 0.17
  PS nHill: 1.18 ± 0.18
NR1101/NR2A; NR1101/NR2A
  Maximum potentiation of NMDA-induced current by PS: 1.66±0.10 fold
  PS Emax: 0.66 ± 0.10
  PS nHill: 1.52 ± 0.24
NR1111/NR2A; NR1111/NR2A
  Maximum potentiation of NMDA-induced current by PS: 1.51±0.04 fold
  PS nHill: 1.28 ± 0.19
NR1111/NR2A; NR1111/NR2A, curve 1+Emax/(1+(EC50/c)n)
  PS Emax: 0.51 ± 0.04
NR1/NR2A (NR1100)
  PS nH: 1.33 ± 0.08
NR1/NR2A (NR1100); 80 μM NMDA, 10 μM glycine
  PS Emax (% Change): +167 ± 7%
NR1/NR2A (NR1100); 100 μM PS, 80 μM NMDA
  enhancement of NMDA plus glycine current: 62±8%
[3]; 100 μM NMDA
  Percentage change in NMDA response: +281 ± 27(7) %
[3]; NR1100+NR2A, 100 μM NMDA
  maximum enhancement of NMDA response: 343%
  steroid Emax (NMDA-induced current relative to control): 4.43

## CC(=O)[C@H]1CC[C@H]2[C@@H]3CC[C@@H]4C[C@H](OS(=O)(=O)O)CC[C@]4(C)[C@H]3CC[C@]12C [3α5βS, 3α5β-pregnanolone sulfate]
NR1011/NR2A [1]; pH 7.5, read-out: percentage inhibition of the maximum NMDA response
  inhibition at 100 µM: 56%
NR1/NR2B (NR1100)
  3α5βS nH: 1.06 ± 0.04
NR1010/NR2A; splice variant 010 /NR2A
  3α5βS Emax: −0.85 ± 0.02
  3α5βS nHill: 1.04 ± 0.06
NR1/NR2C (NR1100); NR1/NR2C
  3α5βS nH: 1.34 ± 0.04
NR1011/NR2A [2]; splice variant 011 /NR2A
  3α5βS Emax: −0.86 ± 0.04
  3α5βS nHill: 0.96 ± 0.06
NR1101/NR2A; splice variant 101 /NR2A
  3α5βS Emax: −0.90 ± 0.07
  3α5βS nHill: 1.05 ± 0.25
NR1111/NR2A; NR1111/NR2A
  maximum extent of inhibition by 3α5βS: 75±7%
NR1111/NR2A; splice variant 111 /NR2A
  3α5βS Emax: −0.75 ± 0.07
  3α5βS nHill: 1.09 ± 0.9
NR1/NR2A (NR1100)
  3α5βS nH: 1.39 ± 0.07
[3]
  EC50: 41 µM
[3]; 100 μM NMDA
  Percentage change in NMDA response: −64 ± 3(7) %

## CN[C@H](CC(=O)O)C(=O)O [NMDA, N-methyl-D-aspartate]
NR1011/NR2A [1]; pH 7.5, +100 μM 3α5βS
  NMDA nH: 1.35
  EC50: 120 µM
NR1011/NR2A [1]; pH 7.5, +100 μM PS
  NMDA nH: 1.24
  EC50: 67 µM
NR1011/NR2A [1]; pH 7.5, control
  NMDA nH: 1.47
NR1011/NR2A [1]; pH 8.5, +100 μM PS
  NMDA nH: 1.44
  EC50: 58 µM
NR1011/NR2A [1]; pH 8.5, control
  NMDA nH: 1.62
  EC50: 94 µM
NR1011/NR2A [1]; pH 7.5, control, 10 μM glycine
  EC50: 71 µM
NR1/NR2B (NR1100); +100 μM PS
  agonist Emax: 1.47
  agonist nH: 1.32 ± 0.11
NR1/NR2B (NR1100); no PS
  agonist Emax: 1.00 ± 0.02
  agonist nH: 1.28 ± 0.08
NR1/NR2B (NR1100); [4]
  EC50: 12 µM
NR1010/NR2A; NR1010/NR2A, absence of PS
  agonist Emax: 1.18 ± 0.03
  agonist nHill: 1.19 ± 0.06
NR1010/NR2A; NR1010/NR2A, presence of PS
  agonist Emax: (1.53 ± 0.08)
  agonist nHill: 1.13 ± 0.09
NR1/NR2C (NR1100); NR1/NR2C, +100 μM PS
  agonist Emax: 0.69
  agonist nH: 1.33 ± 0.03
NR1/NR2C (NR1100); NR1/NR2C, no PS
  agonist Emax: 1.05 ± 0.01
  agonist nH: 1.18 ± 0.02
NR1/NR2C (NR1100); read-out: agonist EC50, NR1/NR2C, +100 μM PS
  EC50: 15 µM
NR1011/NR2A [2]; NR1011/NR2A, absence of PS
  agonist Emax: 1.14 ± 0.02
  agonist nHill: 1.39 ± 0.07
NR1011/NR2A [2]; NR1011/NR2A, presence of 100 mM PS
  agonist nHill: 1.11 ± 0.12
NR1011/NR2A [2]; NR1011/NR2A, presence of PS
  agonist Emax: (1.68 ± 0.06)
NR1101/NR2A; NR1101/NR2A, absence of PS
  agonist Emax: 1.33 ± 0.07
  agonist nHill: 1.31 ± 0.05
NR1101/NR2A; NR1101/NR2A, presence of 100 mM PS
  agonist nHill: 1.15 ± 0.12
NR1101/NR2A; NR1101/NR2A, presence of PS
  agonist Emax: (1.78 ± 0.06)
NR1111/NR2A; NR1111/NR2A, absence of PS
  agonist Emax: 1.34 ± 0.09
  agonist nHill: 1.49 ± 0.02
NR1111/NR2A; NR1111/NR2A, presence of 100 mM PS
  agonist nHill: 1.33 ± 0.22
NR1111/NR2A; NR1111/NR2A, presence of PS
  agonist Emax: (2.27 ± 0.07)
NR1/NR2A (NR1100); +100 μM PS
  agonist Emax: 1.60
  agonist nH: 1.20 ± 0.06
NR1/NR2A (NR1100); no PS
  agonist nH: 1.13 ± 0.04
NR1/NR2A (NR1100); no PS, normalized to 200 μM NMDA plus 10 μM glycine
  agonist Emax: 1.36 ± 0.04
NR1/NR2A (NR1100); [4]
  EC50: 39 µM
NR1/NR2A (NR1100); read-out: agonist EC50, no PS
  EC50: 73 µM
[3]; NR1100+NR2A, +100 μM 3α5βS
  NMDA Emax (normalized to 100 μM NMDA response): 0.35
  NMDA nH: 1.66
[3]; NR1100+NR2A, +100 μM PS
  NMDA Emax (normalized to 100 μM NMDA response): 3.21
  NMDA nH: 1.54
[3]; NR1100+NR2A, control
  NMDA Emax (normalized to 100 μM NMDA response): 1.14
  NMDA nH: 1.43
[3]; read-out: NMDA EC50, NR1100+NR2A, +100 μM 3α5βS
  EC50: 15 µM
[3]; read-out: NMDA EC50, NR1100+NR2A, +100 μM PS
  EC50: 30 µM
